The values below come from ChEMBL document CHEMBL5154681, “Small Amphiphilic Peptides: Activity Against a Broad Range of Drug-Resistant Bacteria and Structural Insight into Membranolytic Properties” (J Med Chem, 2022).

Series [1] concerns Lipid bilayer. The series can be described thus: Membrano-lytic effect in mammalian membrane mimic DOPC/cholesterol (10:1) large unilamellar vesicles assessed as calcein leakage measured at 50 microg/ml measured upto 100 mins for every 10 mins by multimode microplate reader assay. It counts as cell membranes. The settings on record: dose 50.0 µg/ml.
The test system of series [2] is Lipid bilayer. Nature of the series: Membrano-lytic effect in bacterial inner membrane mimic DOPC/DOPG (7:3) large unilamellar vesicles assessed as calcein leakage measured at 5 microg/ml, incubated for 30 mins by multimode microplate reader assay. It counts as cell membranes. To be noted: dose 5.0 µg/ml.
For series [3], the system named is Streptococcus pneumoniae. The series can be described thus: Antibacterial activity against multidrug resistant […] ATCC 700677 incubated for 24 hrs by microtiter plate method. It counts as functional.
The subject of series [4] is Streptococcus pneumoniae. Nature of the series: Antibacterial activity against […] ATCC 49619 incubated for 24 hrs by microtiter plate method. The format is functional.
In series [5] the test system is Escherichia coli. The series can be described thus: Antibacterial activity against Escherichia coli ATCC 25922 incubated for 24 hrs by microtiter plate method. The format is functional. The settings on record: Escherichia coli.
For series [6], the system named is Escherichia coli. Nature of the series: Antibacterial activity against Escherichia coli ATCC 25922 after 24 hrs in presence of 1 mM of MgCl2 at by microtiter plate method. The format is functional.
Series [7] relates to Enterococcus faecalis. The series can be described thus: Antibacterial activity against Enterococcus faecalis ATCC 29212 incubated for 24 hrs by microtiter plate method. It counts as functional.
The test system of series [8] is Cell membrane. The series can be described thus: Membrano-lytic effect in cytoplasmic membrane of Escherichia coli ATCC BAA-2452 assessed as disruption by measuring propidium iodide fluorescence incubated for 1 hr by FACscan flow cytometer analysis. To be noted: DDE = dose-dependent effect.
Series [9] relates to Klebsiella pneumoniae. The series can be described thus: Antibacterial activity against Klebsiella pneumoniae ATCC 13883 […] incubated for 24 hrs by microtiter plate method. The format is functional.
The test system of series [10] is Escherichia coli. Nature of the series: Bactericidal activity against Escherichia coli ATCC BAA-2452 assessed as reduction of bacterial growth at 4 times MIC by counting formed colonies. It counts as functional, organism-based. To be noted: time <= 4.0 hrs, TDE = time-dependent effect.
The test system of series [11] is Lipid bilayer. The series can be described thus: Membrano-lytic effect in bacterial inner membrane mimic DOPC/DOPG (7:3) large unilamellar vesicles assessed as calcein leakage measured at 50 microg/ml, incubated for 40 mins by multimode microplate reader assay. The settings on record: dose 50.0 µg/ml. It counts as cell membranes.
In series [12] the test system is Escherichia coli. Nature of the series: Antibacterial activity against Escherichia coli NDM-1-resistant ATCC BAA-2452 incubated for 24 hrs by microtiter plate method. It counts as functional.
Series [13] is described as follows: Cytotoxicity against human MRC-5 assessed as cell viability at 150 ug/ml incubated for 24 hrs by microplate spectrophotometer analysis method relative to control. The format is toxicity, cell-based, MRC5. To be noted: MRC-5 cells, at 150 µg/mL, read-out: Activity.
Series [14] relates to Staphylococcus aureus. Nature of the series: Antibacterial activity against Staphylococcus aureus ATCC 29213 incubated for 24 hrs by microtiter plate method. It counts as functional. To be noted: Staphylococcus aureus, ATCC 29213, read-out: MIC.
For series [15], the system named is Staphylococcus aureus. Nature of the series: Bactericidal activity against methicillin resistant Staphylococcus aureus ATCC BAA-1556 assessed as reduction of bacterial growth at 4 times MIC by counting formed colonies. The format is functional, organism-based. To be noted: time <= 4.0 hrs, TDE = time-dependent effect.
Series [16] has as its system Staphylococcus aureus. Nature of the series: Antibacterial activity against methicillin resistant Staphylococcus aureus ATCC BAA-1556 after 24 hrs in presence of 6 mM of NH4Cl by microtiter plate method. It counts as functional.
Series [17] has as its system Escherichia coli. Nature of the series: Antibacterial activity against Escherichia coli ATCC BAA-2452 assessed as membrane atrophy at 4 times of MIC incubated for 30 mins by FE-SEM analysis. The format is functional, organism-based.
Series [18] can be described thus: Cytotoxicity against human MRC5 assessed as cell viability at 50 ug/ml incubated for 24 hrs by microplate spectrophotometer analysis method relative to control. The format is toxicity, cell-based. The settings on record: MRC5 cells, at 50 µg/mL, read-out: Activity.
The test system of series [19] is Cell membrane. The series can be described thus: Membrano-lytic effect in cytoplasmic membrane of Escherichia coli ATCC BAA-2452 assessed as disruption by measuring propidium iodide fluorescence at 4 times MIC incubated for 1 hr by FACscan flow cytometer analysis.
Series [20] concerns Staphylococcus aureus. The series can be described thus: Antibacterial activity against methicillin-resistant Staphylococcus aureus ATCC BAA-1556 assessed as membrane atrophy at 4 times of MIC incubated for 30 mins by FE-SEM analysis. It counts as functional, organism-based.
Series [21] deals with Escherichia coli. The series can be described thus: Antibacterial activity against Escherichia coli ATCC 25922 incubated for 24 hrs. It counts as functional.
The test system of series [22] is Pseudomonas aeruginosa. Nature of the series: Antibacterial activity against Pseudomonas aeruginosa ATCC 27883 incubated for 24 hrs by microtiter plate method. The format is functional. To be noted: Pseudomonas aeruginosa, ATCC 27883, read-out: MIC.
The subject of series [23] is Lipid bilayer. Nature of the series: Membrano-lytic effect in bacterial inner membrane mimic DOPC/DOPG (7:3) large unilamellar vesicles assessed as calcein leakage measured upto 100 mins for every 10 mins by multimode microplate reader assay. It counts as cell membranes. The settings on record: dose 5-50 µg/ml, DDE = dose-dependent effect.
The subject of series [24] is Lipid bilayer. The series can be described thus: Membrano-lytic effect in bacterial inner membrane mimic DOPC/DOPG (7:3) large unilamellar vesicles assessed as calcein leakage measured at 50 microg/ml, incubated for 50 mins by multimode microplate reader assay. It counts as cell membranes. The settings on record: dose 50.0 µg/ml.

Converted amounts (≈) assume the structure as drawn. The source made the active and inactive calls. No cut-off for these calls is given here. Square brackets hold non-standard residues; d marks the D form. Peptide text beside a SMILES is read from it. Dip = N[C@H](C(=O)O)C(c1ccccc1)c1ccccc1; 2Nal = N[C@@H](Cc1ccc2ccccc2c1)C(=O)O

Turning to `N=C(N)NCCC[C@@H]1NC(=O)[C@H](CCCNC(=N)N)NC(=O)[C@H](CCCNC(=N)N)NC(=O)[C@H](Cc2ccc3ccccc3c2)NC(=O)[C@H](Cc2ccc3ccccc3c2)NC(=O)[C@H](Cc2ccc3ccccc3c2)NC(=O)[C@H](CCCNC(=N)N)NC1=O` (cyclo(RRRR[2Nal][2Nal][2Nal])), the Activity is 14% in [1]; 30% in series [2]; “Dde” in series [8]; “Tde” in series [10]; 100% in series [11]; “Tde” in series [15]. In addition, the figures for the Activity in series [19] and in series [23] were 88% and “Dde”, respectively. Besides, the MIC in [3] turned out to be 12.5 mg/L (≈ 10.3 µM); in [4] it was 25 mg/L (≈ 20.6 µM); in series [5] (ATCC 25922, 24 h, read-out: MIC), 25 mg/L (≈ 20.6 µM); in series [6] it was 25 mg/L; in [7], 3.1 mg/L (≈ 2.55 µM); in [9], 50 mg/L (≈ 41.1 µM). Further, the MIC in series [12] was found to be 12.5 mg/L (≈ 10.3 µM); in series [14] it was 3.1 mg/L (≈ 2.55 µM); in series [16], 3.1 mg/L; in [22] it was 12.5 mg/L (≈ 10.3 µM). Further, the viability at 24 h, 150 ug/ml in [13] was 36%. The result in series [17] and in series [20] was Active. Further, in series [18], the viability at 24 h, 50 ug/ml is 93%. For the same compound, in series [21], the MBC turned out to be 100 mg/L (≈ 82.2 µM).

On to `N=C(N)NCCC[C@@H]1NC(=O)[C@H](CCCNC(=N)N)NC(=O)[C@H](CCCNC(=N)N)NC(=O)[C@H](C(c2ccccc2)c2ccccc2)NC(=O)[C@H](C(c2ccccc2)c2ccccc2)NC(=O)[C@H](C(c2ccccc2)c2ccccc2)NC(=O)[C@H](CCCNC(=N)N)NC1=O` (cyclo(RRRR[Dip][Dip][Dip])), for which the Activity in [1] is 18%; in [2], 30%; in series [24] it was 100%; in series [8] it was “Dde”; in series [10], “Tde”; in series [15] it was “Tde”. The Activity in [19] was 78%; in [23], “Dde”. For the same compound, the MIC in series [3] amounted to 25 mg/L (≈ 19.3 µM); in [4], 25 mg/L (≈ 19.3 µM); in series [5] (ATCC 25922, read-out: MIC) it was 12.5 mg/L (≈ 9.66 µM); in series [6] it was 12.5 mg/L; in series [7], 3.1 mg/L (≈ 2.39 µM); in [9], 50 mg/L (≈ 38.6 µM). For the same compound, the MIC came out at 12.5 mg/L (≈ 9.66 µM) in series [12], 3.1 mg/L (≈ 2.39 µM) in series [14], 3.1 mg/L in series [16] and 12.5 mg/L (≈ 9.66 µM) in series [22]. Moreover, the viability at 24 h, 150 ug/ml in series [13] stood at 36%. In addition, the outcome in [17] and in [20] was Active. Besides, the viability at 24 h, 50 ug/ml in series [18] is 93%. Further, the MBC in series [21] was found to be 25 mg/L (≈ 19.3 µM).
